Results reported in patent publication US20180037871A1, “CANCER INITIATING CELL AND USE THEREOF” (priority 2016, published 2018).
Entries after “also recorded” stand apart in the source; their conditions may differ. Read-outs that look alike come from different tables or passages of the source.

How the values were obtained:
[1] = system: A549 cells; assay: Cell viability assay (WST-1), A549 cells; assay type: cell-based, human; conditions: 48 h, mean ± SD
Procedure: (§1) Cells were seeded at 3×10^3 cells per well in 96-well plates and incubated for 18 h. Cells were treated with cisplatin (Sigma-Aldrich) or paclitaxel (Sigma-Aldrich) at various concentrations. After 48 h, WST-1 assay (Roche) was performed to determine cell viability according to the manufacturer's instructions. Cell viability was expressed as a percentage of the non-treated group, and the IC50 values were determined.

[2] = system: CAR+/mPSCs^Oct-4_hi C7 clone; assay: Cell viability assay (WST-1), C7 clone; assay type: cell-based, mouse; conditions: 48 h, mean ± SD
Procedure: as §1

[3] = system: CAR+/mPSCs^Oct-4_hi C1 clone; assay: Cell viability assay (WST-1), C1 clone; assay type: cell-based, mouse; conditions: 48 h, mean ± SD
Procedure: as §1

[4] = system: CAR+/mPSCs^Oct-4_hi C1, E9, and C7 clones; assay: Cell viability assay (WST-1), C1, E9 and C7 clones together; assay type: cell-based, mouse; conditions: for IC50: range over C1, E9, and C7 clones, 48 h
Procedure: as §1

[5] = system: CAR+/mPSCs^Oct-4_hi E9 clone; assay: Cell viability assay (WST-1), E9 clone; assay type: cell-based, mouse; conditions: 48 h, mean ± SD
Procedure: as §1

[6] = system: blood vessel formation induced by C1 clone; assay: Chick chorioallantoic membrane (CAM) assay of C1 clone; assay type: in vivo, chicken; conditions: 2 μM Tie2 kinase inhibitor, C1 clone 1×10^6 cells on CAM
Procedure: Fertilized chicken eggs were incubated at 37° C. in an atmosphere of 80% humidity. At day 8 of the development, 1×10^6 cells were loaded onto a membrane and implanted on the top of the growing CAM. At day 11, CAM was fixed with 4% paraformaldehyde, and photographed using a stereomicroscope and digital camera. Branching points were quantified using NIH Image J software with the angiogenesis plugin.
At day 11, CAM was fixed with 4% paraformaldehyde, and photographed using a stereomicroscope and a digital camera. Branching points were quantified using NIH Image J software with the angiogenesis plugin.

[7] = system: C1 clone tumor; assay: Xenograft tumor assay of C1 clone; assay type: in vivo; conditions: 50 mg/kg BW ip once every two days, 1×10^5 C1 cells sc, SCID mice, volume recorded day 10 to 25
Excerpt: All animal experiments were reviewed and approved by the Institutional Animal Care and Use Committee of National Taiwan University College of Medicine. For teratoma formation assay, 1×10^6 cells of CAR^+/mPSCs^Oct-4^_^hi C1, E9, and C7 clones were subcutaneously injected into 8-week-old male severe combined immunodeficiency (SCID) mice. For limiting dilution transplantation experiment, the C1 clone (10^5, 10^4, 10^3 and 10^2 cells) or CAR^+/mPSCs (10^6 cells) were subcutaneously injected into SCID mice. For C1-GFP clone and A549 cells derived tumor experiments. C1-GFP clone (1×10^5 cells) or A549 (1×10^6 cells) were subcutaneously injected into SCID mice. Tumor dimensions were measured using calipers once every 3 d, and volumes (cm^3) were calculated according to the standard formula: length×width^2/2. At the end of the experiment, the tumors were surgically excised and photographed. In metastasis assay, 3×10^5 cells of C1 clone, and CAR^+/mPSCs were injected into the lateral tail vein of SCID mice. Lung metastatic nodules were evaluated at week 5 by necropsy and histological examination. […]
1×10^5 cells of CAR^+/mPSCs^Oct-4^_^hi C1 clone were subcutaneously injected into 8-week-old male severe combined immunodeficiency (SCID) mice. […] Tumor dimensions were measured using calipers once every 2 or 3 d, and volumes (cm^3) were calculated according to the standard formula: length×width^2/2. […]

[8] = IC50 in C1, E9, C7 clones versus A549 cells
[9] = Mus musculus, read-out: IC50 of paclitaxel

`N.N.[Cl][Pt][Cl]` [Cisplatin, cisplatin] gave an IC50 ([1]; read-out: IC50 of cisplatin) of 13.5 ± 2.2 µM, an IC50 ([2]; read-out: IC50 of cisplatin) of 32.7 ± 1.6 µM and an IC50 ([3]; read-out: IC50 of cisplatin) of 34.7 ± 1.4 µM. For the same compound, the “resistance to cisplatin compared to the A549 cells” value [4, 8] was 2-3 fold, the IC50 ([4]; read-out: IC50 of cisplatin) was 26.4 to 34.7 µM and the IC50 ([5]; read-out: IC50 of cisplatin) was 26.4 ± 2.3 µM.

Work on `CC(=O)O[C@H]1C(=O)[C@@]2(C)[C@H]([C@H](OC(=O)c3ccccc3)[C@]3(O)C[C@H](OC(=O)[C@H](O)[C@@H](NC(=O)c4ccccc4)c4ccccc4)C(C)=C1C3(C)C)[C@]1(OC(C)=O)CO[C@@H]1C[C@@H]2O` [Paclitaxel, paclitaxel] yielded an IC50 ([1]; Homo sapiens, read-out: IC50 of paclitaxel) of 0.0082 ± 0.0035 µM, an IC50 [2, 9] of 0.045 ± 0.0025 µM and an IC50 [3, 9] of 0.0472 ± 0.002 µM. For the same compound, the “IC50 of paclitaxel higher than that of the A549 cells” value [4, 8] was “approximately 6 fold”, the IC50 [4, 9] was 0.0432 to 0.0472 µM and the IC50 [5, 9] was 0.0432 ± 0.0036 µM.

`COc1ccc2cc(-c3nc(-c4ccc([S+](C)[O-])cc4)[nH]c3-c3ccncc3)ccc2c1` (stereo not drawn) [Tie2 kinase inhibitor] was tested, and the “blood vessel formation (branch point number)” value [6] was “inhibited the blood vessel formation; also recorded: decreases the blood vessel formation induced by C1 clone”, the “tumor volume / tumor growth” value [7] was “the tumor growth of C1 clone is inhibited” and the “tumor volume / tumor growth” value ([7]; listed as Tie2 inhibitor) was “significantly reduced the tumor volume”.
